According to the supplement of paper PMC10307832:

Key:
Experiment in all cases: relative viability (nuclei count vs DMSO), 5 days (fraction); higher = more cells survive
LK-2 = system: LK-2
How it was run: (§1)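 Lung cancer cell lines in 1536-well plates were dosed by pin tool the day after seeding, either with one drug alone or with a fixed anchor-drug dose plus five library-drug doses (not always all listed) in √10 steps. After 5 days, cells were fixed and their nuclei stained in one step (final 0.05% Triton X-100, 1% formaldehyde, 1 ug/ml Hoechst), then counted on 4× images. Relative viability is the nuclei count in treated wells divided by that in vehicle wells. Values are medians of duplicate plates.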

NCI-H2228 = system: NCI-H2228
How it was run: as §1

EKVX = system: EKVX
How it was run: as §1

PC-3 [JPC-3] = system: PC-3 [JPC-3]
How it was run: as §1

NCI-H1437 = system: NCI-H1437
How it was run: as §1

NCI-H2405 = system: NCI-H2405
How it was run: as §1

CAL-12T = system: CAL-12T
How it was run: as §1

H3255 = system: H3255
How it was run: as §1

NCI-H322M = system: NCI-H322M
How it was run: as §1

HCC-15 = system: HCC-15
How it was run: as §1

NCI-H1355 = system: NCI-H1355
How it was run: as §1

NCI-H1563 = system: NCI-H1563
How it was run: as §1

O=C(O)c1ccc(-c2c[nH]c3ncc(-c4ccccc4)cc23)cc1C1CCCC1 + COc1cccc2cc(-c3nc([C@H]4CC[C@H](C(=O)O)CC4)n4ncnc(N)c34)[nH]c12 [OSI-027] (partner 0.5 µM)
relative viability (LK-2; first compound 0.4 µM): 0.165
relative viability (LK-2; first compound 1.265 µM): 0.195
relative viability (NCI-H2228; first compound 0.04 µM): 0.557
relative viability (NCI-H2228; first compound 0.1265 µM): 0.568
relative viability (NCI-H2228; first compound 0.4 µM): 0.446
relative viability (NCI-H2228; first compound 1.265 µM): 0.355
relative viability (EKVX; first compound 0.04 µM): 0.736
relative viability (EKVX; first compound 0.1265 µM): 0.828
relative viability (EKVX; first compound 0.4 µM): 0.727
relative viability (EKVX; first compound 1.265 µM): 0.587
relative viability (PC-3 [JPC-3]; first compound 0.04 µM): 0.784
relative viability (PC-3 [JPC-3]; first compound 0.1265 µM): 0.792
relative viability (PC-3 [JPC-3]; first compound 0.4 µM): 0.82
relative viability (PC-3 [JPC-3]; first compound 1.265 µM): 0.655
relative viability (NCI-H1437; first compound 0.04 µM): 0.898
relative viability (NCI-H1437; first compound 0.1265 µM): 0.926
relative viability (NCI-H1437; first compound 0.4 µM): 1.01
relative viability (NCI-H1437; first compound 1.265 µM): 0.565
relative viability (NCI-H2405; first compound 0.04 µM): 0.653
relative viability (NCI-H2405; first compound 0.1265 µM): 0.626
relative viability (NCI-H2405; first compound 0.4 µM): 0.617
relative viability (NCI-H2405; first compound 1.265 µM): 0.605
relative viability (CAL-12T; first compound 0.04 µM): 0.63
relative viability (CAL-12T; first compound 0.1265 µM): 0.751
relative viability (CAL-12T; first compound 0.4 µM): 0.671
relative viability (CAL-12T; first compound 1.265 µM): 0.547
relative viability (H3255; first compound 0.04 µM): 0.671
relative viability (H3255; first compound 0.1265 µM): 0.662
relative viability (H3255; first compound 0.4 µM): 0.554
relative viability (H3255; first compound 1.265 µM): 0.506
relative viability (NCI-H322M; first compound 0.04 µM): 0.546
relative viability (NCI-H322M; first compound 0.1265 µM): 0.588
relative viability (NCI-H322M; first compound 0.4 µM): 0.674
relative viability (NCI-H322M; first compound 1.265 µM): 0.521
relative viability (HCC-15; first compound 0.04 µM): 0.807
relative viability (HCC-15; first compound 0.1265 µM): 0.813
relative viability (HCC-15; first compound 0.4 µM): 0.633
relative viability (HCC-15; first compound 1.265 µM): 0.399
relative viability (NCI-H1355; first compound 0.04 µM): 0.43
relative viability (NCI-H1355; first compound 0.1265 µM): 0.47
relative viability (NCI-H1355; first compound 0.4 µM): 0.371
relative viability (NCI-H1355; first compound 1.265 µM): 0.379
relative viability (NCI-H1563; first compound 0.04 µM): 0.72
relative viability (NCI-H1563; first compound 0.1265 µM): 0.753
relative viability (NCI-H1563; first compound 0.4 µM): 0.783
relative viability (NCI-H1563; first compound 1.265 µM): 0.798
